Measurements taken from patent US20130053330A1, “Fertilization Prediction and Promotion” (Karolinska Institutet Innovations AB, priority 2010, published 2013).
Peptide text beside a SMILES is read from it.

Columns and labels:
[1] = system: Human endometrial endothelial (HEE) cells; experiment: Chemotaxis (migration) assay in modified Boyden chamber, HEE cells; format: cell-based; settings: VEGF 10 ng/ml; for inhibition of VEGF-induced migration of HEE cells: 100 ng/ml in lower chamber, 4-6 h at 37° C.
Protocol: By using a proliferation and a migration (chemotaxis) assay the importance of HRG as well as HRG peptides was analyzed. The peptides used correspond to a fragment of full-length HRG containing 35 amino acids covering position 204 in the protein; the proline of native HRG in that specific position is changed to serine. The amino acid sequences are: […] NO: 7, named HRGPro herein) and […] NO: 8, named […] herein); the peptides were produced and purchased from Innovagen, Lund, Sweden. The assay was performed in a modified Boyden chamber using micropore nitrocellulose filters (8 μm thick, 8 μm pore) coated with type-1 collagen solution at 100 μg/ml (Vitrogen 100, Collagen Corp.). Cells (G10 and HEEC cells) were trypsinized and resuspended at a concentration of 5.5×10^5 cells/ml in serum-free culture medium containing 0.25% fetal calf serum (FCS). […] After 4-6 h at 37° C., the medium was removed and the cells sticking to the filter were fixed in pure methanol and stained with Giemsa stain. The cells that had migrated through the filter were counted. The effects of HRG, HRGPro and […] on migration of G10 and HEE cells were examined by using a Boyden chamber.

[2] = system: Human endometrial endothelial (HEE) cells; experiment: Cell proliferation assay, HEE cells; format: cell-based; settings: 100 ng/ml; starvation medium with 0.25% FCS; cell numbers scored after 5 days
Protocol: (§1) By using a proliferation and a migration (chemotaxis) assay the importance of HRG as well as HRG peptides was analyzed. The peptides used correspond to a fragment of full-length HRG containing 35 amino acids covering position 204 in the protein; the proline of native HRG in that specific position is changed to serine. The amino acid sequences are: […] NO: 7, named HRGPro herein) and […] NO: 8, named […] herein); the peptides were produced and purchased from Innovagen, Lund, Sweden. Cells (G10 and HEEC) in culture medium supplemented with 10% FCS were seeded into 24-well dishes. After 2 h the medium was changed to starvation medium (culture medium containing 0.25% FCS) and the incubation continued for an additional 24 h. The medium was changed again at day 2 and day 4 (starvation medium), and at the same time FGF-2 or VEGF, HRG or HRG Pro or Ser containing peptide were added. As a control, cells were cultured in basal culture medium supplemented with 10% FCS. Cell numbers were scored after 5 days. Human endometrial endothelial (HEE) cells were cultured in starvation medium containing culture medium (3 H) supplemented with 0.25% FCS.

[3] = system: G10 cells (Porcine aortic endothelial cells); experiment: Chemotaxis (migration) assay in modified Boyden chamber, G10 cells; format: cell-based, pig; settings: for inhibition of VEGF-induced migration of G10 cells: 100 ng/ml in lower chamber, 4-6 h at 37° C.
Protocol: By using a proliferation and a migration (chemotaxis) assay the importance of HRG as well as HRG peptides was analyzed. The peptides used correspond to a fragment of full-length HRG containing 35 amino acids covering position 204 in the protein; the proline of native HRG in that specific position is changed to serine. The amino acid sequences are: […] (SEQ ID NO: 7, named HRGPro herein) and […] (SEQ ID NO: 8, named HRGSer herein); the peptides were produced and purchased from Innovagen, Lund, Sweden.
The assay was performed in a modified Boyden chamber using micropore nitrocellulose filters (8 μm thick, 8 μm pore) coated with type-1 collagen solution at 100 μg/ml (Vitrogen 100, Collagen Corp.). Cells (G10 and HEEC cells) were trypsinized and resuspended at a concentration of 5.5×10^5 cells/ml in serum-free culture medium containing 0.25% fetal calf serum (FCS). The cell suspension was placed in the upper chamber, and the serum-free medium containing 0.25% FCS and FGF-2 or VEGF, HRG or the HRGPro or HRGSer peptide, was placed below the filter in the lower chamber. As a positive control, medium containing 10% FCS was added to the lower chamber. After 4-6 h at 37° C., the medium was removed and the cells sticking to the filter were fixed in pure methanol and stained with Giemsa stain. The cells that had migrated through the filter were counted.
The effects of HRG, HRGPro and HRGSer on migration of G10 and HEE cells were examined by using a Boyden chamber.

[4] = system: G10 cells (Porcine aortic endothelial cells); settings: 100 ng/ml; starvation medium (Ham's F12, 0.25% FCS); cell numbers scored after 5 days
Protocol: as §1, with “G10 cells (Porcine aortic” for “Human endometrial”, “cells)” for “(HEE) cells”, “(Ham's F12)” for “(3 H)”

Molecule | induction of migration of HEE cells [1] | increase in number of HEE cells compared with culture in starvation medium [2] | inhibition of VEGF-induced migration of HEE cells [1] | inhibition of VEGF-induced migration of G10 cells [3] | induction of migration of G10 cells ([3]; FGF 20 ng/ml) | inhibition of proliferation of G10 cells (decrease compared with culture in starvation medium) [4]
VEGF [reference compound] | induced migration |  |  |  |  | 
CC(C)[C@H](NC(=O)[C@H](CC(N)=O)NC(=O)[C@@H]1CCCN1C(=O)[C@H](Cc1c[nH]cn1)NC(=O)[C@H](CCCNC(=N)N)NC(=O)[C@@H]1CCCN1C(=O)[C@H](Cc1ccccc1)NC(=O)[C@H](Cc1c[nH]cn1)NC(=O)[C@H](Cc1c[nH]cn1)NC(=O)[C@H](CCCNC(=N)N)NC(=O)[C@@H]1CCCN1C(=O)[C@H](CS)NC(=O)[C@H](CC(N)=O)NC(=O)[C@H](CCCNC(=N)N)NC(=O)[C@@H](NC(=O)[C@H](CO)NC(=O)[C@H](Cc1ccccc1)NC(=O)[C@H](CC(=O)O)NC(=O)[C@@H](NC(=O)[C@H](Cc1ccccc1)NC(=O)[C@H](Cc1ccc(O)cc1)NC(=O)CNC(=O)[C@@H](NC(=O)CNC(=O)[C@H](CCC(=O)O)NC(=O)CNC(=O)CNC(=O)[C@@H](N)CCCNC(=N)N)[C@@H](C)O)C(C)C)C(C)C)C(=O)N[C@@H](Cc1ccccc1)C(=O)NCC(=O)N[C@@H](Cc1ccccc1)C(=O)N[C@@H](CS)C(=O)N[C@@H](CCCNC(=N)N)C(=O)N[C@@H](C)C(=O)N[C@@H](CC(=O)O)C(=O)O [HRGPro] (H-RGGEGTGYFVDFSVRNCPRHHFPRHPNVFGFCRAD-OH; N-terminus and C-terminus assumed) |  | 13% | A tendency | A tendency |  | 
CC(C)[C@H](NC(=O)[C@H](CC(N)=O)NC(=O)[C@@H]1CCCN1C(=O)[C@H](Cc1c[nH]cn1)NC(=O)[C@H](CCCNC(=N)N)NC(=O)[C@@H]1CCCN1C(=O)[C@H](Cc1ccccc1)NC(=O)[C@H](Cc1c[nH]cn1)NC(=O)[C@H](Cc1c[nH]cn1)NC(=O)[C@H](CCCNC(=N)N)NC(=O)[C@H](CO)NC(=O)[C@H](CS)NC(=O)[C@H](CC(N)=O)NC(=O)[C@H](CCCNC(=N)N)NC(=O)[C@@H](NC(=O)[C@H](CO)NC(=O)[C@H](Cc1ccccc1)NC(=O)[C@H](CC(=O)O)NC(=O)[C@@H](NC(=O)[C@H](Cc1ccccc1)NC(=O)[C@H](Cc1ccc(O)cc1)NC(=O)CNC(=O)[C@@H](NC(=O)CNC(=O)[C@H](CCC(=O)O)NC(=O)CNC(=O)CNC(=O)[C@@H](N)CCCNC(=N)N)[C@@H](C)O)C(C)C)C(C)C)C(=O)N[C@@H](Cc1ccccc1)C(=O)NCC(=O)N[C@@H](Cc1ccccc1)C(=O)N[C@@H](CS)C(=O)N[C@@H](CCCNC(=N)N)C(=O)N[C@@H](C)C(=O)N[C@@H](CC(=O)O)C(=O)O [HRGSer] (H-RGGEGTGYFVDFSVRNCSRHHFPRHPNVFGFCRAD-OH; N-terminus and C-terminus assumed) |  | 86% | inhibited significantly | inhibited significantly |  | 
FGF: Fibroblast Growth Factor, used to induce migration of G10 cells [reference compound] |  |  |  |  | induced migration | 
Histidine-rich glycoprotein (protein) VSPTDCSAVEPEAEKALDLINKRRRDGYLFQLLRIADAHLDRVENTTVYYLVLDVQESDCSVLSRKYWNDCEPPDSRRPSEIVIGQCKVIATRHSHESQDLRVIDFNCTTSSVSSALANTKDSPVLIDFFEDTERYRKQANKALEKYKEENDDFASFRVDRIERVARVRGGEGTGYFVDFSVRNCPRHHFPRHPNVFGFCRADLFYDVEALDLESPKNLVINCEVFDPQEHENINGVPPHLGHPFHWGGHERSSTTKPPFKPHGSRDHHHPHKPHEHGPPPPPDERDHSHGPPLPQGPPPLLPMSCSSCQHATFGTNGAQRHSHNNNSSDLHPHKHHSHEQHPHGHHPHAHHPHEHDTHRQHPHGHHPHGHHPHGHHPHGHHPHGHHPHCHDFQDYGPCDPPPHNQGHCCHGHGPPPGHLRRRGPGKGPRPFHCRQIGSVYRLPPLRKGEVLPLPEANFPSFPLPHHKHPLKPDNQPFPQSVSESCPGKFKSGFPQVSMFFTHTFPK |  | 6% | A tendency | A tendency |  | 24%
